From US9090651B2, “Helix 12 directed pharmaceutical products” (ENDORECHERCHE, INC., priority 2004, dated 2015)
“And” between values parts separate entries of the source, which are not always exact repeats. Equal entries are not always repeated. Where two headings read alike, the source gives them in different places.

Legend:
[1] = system: rat seminal vesicle; test: Systemic antiandrogenic activity, orchidectomized immature male rats with DHT implant: seminal vesicle weight; type: in vivo; details: for inhibition in vivo at 0.5 mg: Rattus norvegicus, sc, 168 h, read-out: IN VIVO Rat s.c. (+DHT) SV % inhibition, s.c., 0.5 mg/animal once daily for 7 days, +DHT
Description: (§1) Immature male rats (Crl:CD(SD)Br) 22 to 24-day old were obtained from Charles-River, Inc. (St-Constant, Quebec, Canada) and housed up to 5 per cage in plastic bins in a temperature (23±1° C.)- and light (12 h light/day, lights on at 7 h15)-controlled environment. The rats were fed rodent chow and tap water ad libitum. The day following their arrival, the animals were orchidectomized (CX) under Isoflurane anesthesia via scrotal route and randomly assigned to groups of 5 animals.
(§2) Compounds were solubilized (when possible) in dimethylsulfoxide (DMSO, 10% final concentration) and administered as suspension in 0.4% methylcellulose. […] One group of animals received the antiandrogen Flutamide as reference. The animals were killed by cervical dislocation under isoflurane anesthesia on the 8th morning following castration. The ventral prostate and seminal vesicles were rapidly dissected and weighed.
(§3) W is the weight of the prostate or the seminal vesicle.

[2] = system: Shionogi mouse mammary carcinoma cells; test: Androgenic/antiandrogenic activity on DHT-stimulated Shionogi cell growth; type: cell-based
[3] = biological target: T1, Human Androgen Receptor (Homo sapiens, UniProt P10275); test: Androgen receptor binding assay (hydroxylapatite, [3H]R1881, cytosol of transfected HEK-293 cells); details: % RBA=100×IC50 R1881/IC50 compound, transfected cells
T1 sequence (P10275 1-920): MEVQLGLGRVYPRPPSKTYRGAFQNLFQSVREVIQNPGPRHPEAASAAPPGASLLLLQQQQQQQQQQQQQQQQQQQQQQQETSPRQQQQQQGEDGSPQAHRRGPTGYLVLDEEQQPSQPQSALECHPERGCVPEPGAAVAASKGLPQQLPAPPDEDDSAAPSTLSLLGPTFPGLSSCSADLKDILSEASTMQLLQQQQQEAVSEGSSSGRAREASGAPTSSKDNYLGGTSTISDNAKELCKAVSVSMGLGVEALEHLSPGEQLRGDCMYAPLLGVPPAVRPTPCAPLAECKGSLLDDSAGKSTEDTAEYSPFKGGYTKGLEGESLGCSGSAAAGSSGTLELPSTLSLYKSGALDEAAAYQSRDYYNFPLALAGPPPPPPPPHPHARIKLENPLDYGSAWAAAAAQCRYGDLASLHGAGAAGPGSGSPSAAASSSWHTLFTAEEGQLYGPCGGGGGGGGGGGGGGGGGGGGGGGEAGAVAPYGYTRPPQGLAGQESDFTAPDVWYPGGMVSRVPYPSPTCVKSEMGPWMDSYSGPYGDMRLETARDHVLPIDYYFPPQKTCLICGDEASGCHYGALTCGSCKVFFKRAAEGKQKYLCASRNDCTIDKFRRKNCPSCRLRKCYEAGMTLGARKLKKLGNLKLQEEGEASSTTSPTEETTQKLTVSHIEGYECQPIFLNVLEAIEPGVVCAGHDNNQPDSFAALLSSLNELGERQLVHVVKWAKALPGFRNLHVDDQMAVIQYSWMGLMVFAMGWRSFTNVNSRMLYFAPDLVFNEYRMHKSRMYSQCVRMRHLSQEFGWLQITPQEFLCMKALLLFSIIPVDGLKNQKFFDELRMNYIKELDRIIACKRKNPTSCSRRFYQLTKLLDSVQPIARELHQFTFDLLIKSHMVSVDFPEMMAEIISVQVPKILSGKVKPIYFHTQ

[4] = system: rat prostate; test: Systemic antiandrogenic activity, orchidectomized immature male rats with DHT implant: prostate weight; type: in vivo; details: for inhibition in vivo at 0.5 mg: Rattus norvegicus, sc, 168 h, read-out: IN VIVO Rat s.c. (+DHT) Prostate % inhibition, s.c., 0.5 mg/animal once daily for 7 days, +DHT
Description: as §1, §2, §3

[5] = Mus musculus, read-out: Shionogi Antiandrogenic activity IC50 (nM), inhibition of DHT-stimulated Shionogi cell number

SMILES	inhibition in vivo at 0.5 mg [1] [%]	IC50 [2, 5] [nM]	Androgen Receptor Binding (%) Human RBA R1881 = 100 [3]	inhibition in vivo at 0.5 mg [4] [%]	further results
CCC(NC1CCCC1)c1cccc(OCC[C@]23CCC4C5CCC(=O)C=C5C[C@@H](C)C4C2CC[C@@H]3O)c1 (mixture of isomers) [EM-6681]	19	1.1	56%	15	
CCC(NC1CCCC1)c1cccc(OCC[C@]23CCC4C5CCC(=O)C=C5C[C@@H](C)C4C2CC[C@]3(C)O)c1 (mixture of isomers) [EM-6733]		1.3	62%	34	IN VIVO Rat (+DHT) SV % inhibition (per os) ([1]; per os, +DHT): 6%; IN VIVO Rat (+DHT) Prostate % inhibition (per os) ([4]; per os, +DHT): 34%
CCC(CC)N(C)C(CC)c1cccc(OCC[C@]23CCC4=C5CCC(=O)C=C5CCC4C2CC[C@@H]3O)c1 (mixture of isomers) [EM-6860]	0	5.2	33%	12	
CCCC(NC(C)C)c1cccc(OCC[C@]23C=CC4=C5CCC(=O)C=C5CCC4C2CC[C@@]3(C)O)c1 (mixture of isomers) [EM-7164]	0	6	27%		
C[C@@H]1CC2=CC(=O)CCC2C2CC[C@@]3(CCOc4cccc(C[S+]([O-])c5ccccc5)c4)C(CC[C@]3(C)O)C21 (mixture of isomers) [EM-7230]	0		39%	0	
C[C@]1(O)CCC2C3CCC4=CC(=O)CCC4C3CC[C@@]21CCOc1cccc(CN2CCCCC2)c1 (stereo partly shown) [EM-6654]		9.5	25%	0	
CCC(Cc1cccc(OCC[C@]23CCC4C5CCC(=O)C=C5CCC4C2CC[C@@H]3O)c1)NC1CCCC1 (stereo partly shown) [EM-6753]		19	8.2%	0	
CCC(NC1CCCCC1)c1cccc(OCC[C@]23CCC4C(CCC5=CC(=O)CC[C@@]54C)C2CC[C@@H]3O)c1 (stereo partly shown) [EM-6798]	29		118%	20	IN VIVO Rat (+DHT) SV % inhibition (1 mg, po) ([1]; 1 mg, po, +DHT): 19%; IN VIVO Rat (+DHT) Prostate % inhibition (1 mg, po) ([4]; 1 mg, po, +DHT): 17%
CCC(NC(C)C)c1cccc(OCC[C@]23CCC4C(CCC5=CC(=O)CC[C@@]54C)C2CC[C@]3(C)O)c1 (stereo partly shown) [EM-6918]	0		120%	29	
CCCC(NC(CC)CC)c1cccc(OCC[C@]23CCC4C(CCC5=CC(=O)CC[C@@]54C)C2CC[C@@H]3O)c1 (stereo partly shown) [EM-6928]			146% and 181%		IN VIVO Rat s.c. (+DHT) SV % inhibition ([1]; s.c., 0.5 mg/animal once daily for 7 days, +DHT): 0%; IC50 ([2]; read-out: Shionogi Antiandrogenic activity IC50, inhibition of DHT-stimulated Shionogi cell number): 0.04 nM
CCCC(NC(CC)CC)c1cccc(OCC[C@]23CCC4C5CCC(=O)C=C5C(C)(C)CC4C2CCC3=O)c1 (stereo partly shown) [EM-6993]	0	16.4	35%		
CCC(NC1CCCC1)c1cc(OCC[C@]23CCC4C(CCC5=CC(=O)CC[C@@]54C)C2CCC3O)ccn1 (stereo partly shown) [EM-7165]		1.4	26.6%		
CCC(NC1CCCCC1)c1cc(OCC[C@]23CCC4C(CCC5=CC(=O)CC[C@@]54C)C2CCC3O)ccn1 (stereo partly shown) [EM-7166]		3.5	22.3%		
CCC(NC1CCOCC1)c1cncc(OCC[C@]23CCC4C(CCC5=CC(=O)CC[C@@]54C)C2CCC3O)c1 (stereo partly shown) [EM-7176]		7.2	16%		
COCC(NC1CCCCC1)c1cncc(OCC[C@]23CCC4C(CCC5=CC(=O)CC[C@@]54C)C2CCC3O)c1 (stereo partly shown) [EM-7184]		7.4	57%		
CCCC(NC1CCCC1)c1cccc(OCC[C@]23CCC4C5CCC(=O)C=C5C[C@H](C)C4C2CC[C@]3(C)O)c1 (stereo partly shown) [EM-7218]	0		112%	35	
CN(C)CC(NC1CCCCC1)c1cncc(OCC[C@]23CCC4C(CCC5=CC(=O)CC[C@@]54C)C2CCC3O)c1 (stereo partly shown) [EM-7221]		11	20%		
